The values that follow come from the supplement of paper PMC10307832.

What all share (assay): relative viability (nuclei count vs DMSO), 5 days (fraction); higher = more cells survive
Compound in the experiment “Metformin + Tozasertib”: CN(C)C(=N)NC(=N)N [Metformin] + Cc1cc(Nc2cc(N3CCN(C)CC3)nc(Sc3ccc(NC(=O)C4CC4)cc3)n2)n[nH]1 [Tozasertib] (partner 0.1 µM)
A digest of the protocol:
(§1)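 Lung cancer cell lines were seeded in 1536-well plates and dosed by pin tool the next day, with either a single drug or a fixed anchor-drug dose combined with five library-drug doses (not always all listed) spaced in √10 steps. Five days later, one step fixed the cells and stained their nuclei (final 0.05% Triton X-100, 1% formaldehyde, 1 ug/ml Hoechst), and nuclei were counted on 4× images. Relative viability is the nuclei count in treated wells divided by the count in vehicle wells, and each value is the median of duplicate plates.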

Compound in the experiment “Metformin + Palbociclib”: CN(C)C(=N)NC(=N)N [Metformin] + CC(=O)c1c(C)c2cnc(Nc3ccc(N4CCNCC4)cn3)nc2n(C2CCCC2)c1=O [Palbociclib] (partner 0.5 µM)
In short, it runs like this:
as §1

Compound in another experiment: CN(C)C(=N)NC(=N)N [Metformin]
A digest of the protocol: (§2)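 Nuclei counted with MetaXpress define viability as the ratio of treated to vehicle wells, given as a median across plates. The lung cancer cell lines were in 1536-well plates, pinned with five √10-spaced library-drug doses and imaged at 4× after 5 days and Hoechst staining. Plates passed with control CV below 25% and at least one doubling.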

Compound in a further experiment: N#CC1(c2ccc(NC(=O)c3cccnc3NCc3ccncc3)cc2)CCCC1 [Apatinib]
A digest of the protocol:
as §2

For the cell line NCI-H460, the relative viability stood at 0.59 with Metformin + Tozasertib (first compound 31.62 µM); 0.645 with Metformin + Tozasertib (first compound 100 µM); 0.187 with Metformin + Tozasertib (first compound 316.23 µM); 0.734 with Metformin + Tozasertib (first compound 1000 µM); 0.191 in the experiment with Metformin + Palbociclib (first compound 31.62 µM); 0.249 in the experiment with Metformin + Palbociclib (first compound 100 µM). Further, the relative viability with Metformin + Palbociclib (first compound 316.23 µM) came to 0.105; in the experiment with Metformin + Palbociclib (first compound 1000 µM) it was 0.148; with Metformin (31.62 µM) it was 1.01; with Metformin (100 µM) it was 1; with Metformin (316.23 µM) it was 0.976; with Metformin (1000 µM), 1.07. The relative viability in the experiment with Apatinib (0.08 µM) was 0.976; with Apatinib (0.253 µM) it was 0.99; with Apatinib (0.8 µM), 0.963; with Apatinib (2.53 µM) it was 0.925; with Apatinib (8 µM) it was 0.93.
